Here are results for 32 compounds from patent US8168647B2, “Vinblastine derivatives, their preparation, use and pharmaceutical compositions comprising the said derivatives” (Shanghai Institute of Materia Medica Chinese Academy of …, priority 2007, dated 2012).

Assay [1] deals with human non-small cell lung cancer cell line A-549. In words: In vitro cytotoxicity assay, Sulforhodamine B (SRB), A-549. The class given is cell-based. Particulars: Homo sapiens.
Assay [2] relates to human cervical carcinoma cell line Hela. In words: In vitro cytotoxicity assay, Sulforhodamine B (SRB), Hela. The class given is cell-based. As to conditions: Homo sapiens, HeLa.
Where [3] appears, read: A549, 72 h, read-out: A549 (IC50, nM).
Where [4] appears, read: 72 h, read-out: Hela (IC50, nM).

Where a name gives a salt, the structure may show the parent alone. Read-outs that look alike come from different tables or passages of the source. Bounds are passed on as bounds.

In the case of `CCOCC1(O)[C@H](OC(C)=O)[C@]2(CC)C=CCN3CC[C@@]4(c5cc([C@@]6(C(=O)OC)C[C@@H]7C=C(CC)CN(CCc8c6[nH]c6ccccc86)C7)c(OC)cc5N(C)[C@@H]14)[C@@H]32` (stereo partly shown) [BM1], the IC50 in assay [1] (setting [3]) turned out to be 348 nM; in assay [2] (setting [4]), 154 nM.
The like results for `CCC1=C[C@@H]2CN(CCc3c([nH]c4ccccc34)[C@@](C(=O)OC)(c3cc4c(cc3OC)N(C)[C@H]3C(O)(CNC(=O)OC5CCCCC5)[C@H](OC(C)=O)[C@]5(CC)C=CCN6CC[C@]43[C@@H]65)C2)C1` (stereo partly shown) [BM60] were, in that order, 226 nM and 75.9 nM.
In the same order, the values of `CCC1=C[C@@H]2CN(CCc3c([nH]c4ccccc34)[C@@](C(=O)OC)(c3cc4c(cc3OC)N(C)[C@H]3C(O)(CNC(=O)OCc5ccccc5)[C@H](OC(C)=O)[C@]5(CC)C=CCN6CC[C@]43[C@@H]65)C2)C1` (stereo partly shown) [BM66] are 261 nM and 87.5 nM.
As to `CC[C@]1(O)C[C@H]2CN(CCc3c([nH]c4ccccc34)[C@@](C(=O)OC)(c3cc4c(cc3OC)N(C=O)[C@H]3[C@@](O)(C(=O)OC)[C@H](OC(C)=O)[C@]5(CC)C=CCN6CC[C@]43[C@@H]65)C2)C1` [Vincristine sufate, reference compound], the IC50 in assay [1] (A549, SRB assay, 72 hours incubation, ditartrate of all compounds used, read-out: A549 (IC50)) was 25.1 nM; in assay [2] (SRB assay, 72 hours incubation, ditartrate of all compounds used, read-out: Hela (IC50)), 11.3 nM.
For the compound `CCC1=C[C@@H]2CN(CCc3c([nH]c4ccccc34)[C@@](C(=O)OC)(c3cc4c(cc3OC)N(C)[C@H]3C(O)(CNC(=O)OC5CCC5)[C@H](OC(C)=O)[C@]5(CC)C=CCN6CC[C@]43[C@@H]65)C2)C1` (stereo partly shown) [BM58], the IC50 is 97.3 nM in assay [1] (setting [3]) and 62.9 nM in assay [2] (setting [4]).
The like results for `CCC1=C[C@@H]2CN(CCc3c([nH]c4ccccc34)[C@@](C(=O)OC)(c3cc4c(cc3OC)N(C)[C@H]3C(O)(CNC(=O)Oc5ccc(F)c(F)c5)[C@H](OC(C)=O)[C@]5(CC)C=CCN6CC[C@]43[C@@H]65)C2)C1` (stereo partly shown) [BM63] were, in that order, more than 1000 nM and 264 nM.
The like results for `CCC1=C[C@@H]2CN(CCc3c([nH]c4ccccc34)[C@@](C(=O)OC)(c3cc4c(cc3OC)N(C)[C@H]3C(O)(CNC(=O)OCc5ccccc5OC)[C@H](OC(C)=O)[C@]5(CC)C=CCN6CC[C@]43[C@@H]65)C2)C1` (stereo partly shown) [BM67] were, in that order, 480 nM and 176 nM.
In the same order, the values of `CCC1=C[C@@H]2CN(CCc3c([nH]c4ccccc34)[C@@](C(=O)OC)(c3cc4c(cc3OC)N(C)[C@H]3C(O)(CNC(=O)OCc5ccc(Cl)cc5)[C@H](OC(C)=O)[C@]5(CC)C=CCN6CC[C@]43[C@@H]65)C2)C1` (stereo partly shown) [BM71] are 510 nM and 347 nM.
`CCC1=C[C@@H]2CN(CCc3c([nH]c4ccccc34)[C@@](C(=O)OC)(c3cc4c(cc3OC)N(C)[C@H]3C(O)(CNC(=O)c5cccc(Cl)c5)[C@H](OC(C)=O)[C@]5(CC)C=CCN6CC[C@]43C65)C2)C1` (stereo partly shown) [BM40]: the concentration for half-maximal inhibition (IC50) in assay [1] (setting [3]) was determined as 103 nM; in assay [2] (setting [4]), 42 nM.
In the same order, the values of `CC[C@]12C=CCN3CC[C@@]4(c5cc([C@@]6(C(=O)OC)C[C@@H]7C[C@@H](C(C)(F)F)CN(CCc8c6[nH]c6ccccc86)C7)c(OC)cc5N(C)[C@H]4C(O)(CNC(C)=O)[C@@H]1OC(C)=O)[C@@H]32` (stereo partly shown) [BM77] are more than 1000 nM and more than 1000 nM.
The like results for `CCC1=C[C@@H]2CN(CCc3c([nH]c4ccccc34)[C@@](C(=O)OC)(c3cc4c(cc3OC)N(C)[C@H]3C(O)(COC(=O)C(C)(C)C)[C@H](OC(C)=O)[C@]5(CC)C=CCN6CC[C@]43C65)C2)C1` (stereo partly shown) [BM12] were, in that order, 576 nM and 95.9 nM.
The like results for `CCC1=C[C@@H]2CN(CCc3c([nH]c4ccccc34)[C@@](C(=O)OC)(c3cc4c(cc3OC)N(C)[C@H]3C(O)(CNC(=O)C5CCC5)[C@H](OC(C)=O)[C@]5(CC)C=CCN6CC[C@]43[C@@H]65)C2)C1` (stereo partly shown) [BM35] were, in that order, 117 nM and 45.2 nM.
On to `CCC1=C[C@@H]2CN(CCc3c([nH]c4ccccc34)[C@@](C(=O)OC)(c3cc4c(cc3OC)N(C)[C@H]3C(O)(CNC(=O)Cc5ccccc5)[C@H](OC(C)=O)[C@]5(CC)C=CCN6CC[C@]43C65)C2)C1` (stereo partly shown) [BM46], for which the IC50 in assay [1] (setting [3]) turned out to be 174 nM; in assay [2] (setting [4]), 22.9 nM.
In the same order, the values of `CCCOCC1(O)[C@H](OC(C)=O)[C@]2(CC)C=CCN3CC[C@@]4(c5cc([C@@]6(C(=O)OC)C[C@@H]7C=C(CC)CN(CCc8c6[nH]c6ccccc86)C7)c(OC)cc5N(C)[C@@H]14)[C@@H]32` (stereo partly shown) [BM3] are more than 1000 nM and more than 1000 nM.
For `CCC1=C[C@@H]2CN(CCc3c([nH]c4ccccc34)[C@@](C(=O)OC)(c3cc4c(cc3OC)N(C)[C@H]3C(O)(CNC(=O)c5ccc(F)cc5)[C@H](OC(C)=O)[C@]5(CC)C=CCN6CC[C@]43C65)C2)C1` (stereo partly shown) [BM38], the half-maximal inhibitory concentration (IC50) in assay [1] (setting [3]) is 46.5 nM; in assay [2] (setting [4]), 20.4 nM.
In the same order, the values of `CCC1=C[C@@H]2CN(CCc3c([nH]c4ccccc34)[C@@](C(=O)OC)(c3cc4c(cc3OC)N(C)[C@H]3C(O)(COC(C)=O)[C@H](OC(C)=O)[C@]5(CC)C=CCN6CC[C@]43C65)C2)C1` (stereo partly shown) [BM6] are 124 nM and 47.6 nM.
The like results for `CCC1=C[C@@H]2CN(CCc3c([nH]c4ccccc34)[C@@](C(=O)OC)(c3cc4c(cc3OC)N(C)[C@H]3C(O)(COCc5ccc(OC)cc5)[C@H](OC(C)=O)[C@]5(CC)C=CCN6CC[C@]43C65)C2)C1` (stereo partly shown) [BM5] were, in that order, more than 1000 nM and 286 nM.
The like results for `CCCCNC(=O)OCC1(O)[C@H](OC(C)=O)[C@]2(CC)C=CCN3CC[C@@]4(c5cc([C@@]6(C(=O)OC)C[C@@H]7C=C(CC)CN(CCc8c6[nH]c6ccccc86)C7)c(OC)cc5N(C)[C@@H]14)[C@@H]32` (stereo partly shown) [BM23] were, in that order, more than 1000 nM and more than 1000 nM.
Consider `CCC1=C[C@@H]2CN(CCc3c([nH]c4ccccc34)[C@@](C(=O)OC)(c3cc4c(cc3OC)N(C)[C@H]3C(O)(CNC(=O)CC(C)C)[C@H](OC(C)=O)[C@]5(CC)C=CCN6CC[C@]43[C@@H]65)C2)C1` (stereo partly shown) [BM30], for which the half-inhibitory concentration (IC50) in assay [1] (setting [3]) and in assay [2] (setting [4]) was more than 1000 nM in each case.
With `CCC1=C[C@@H]2CN(CCc3c([nH]c4ccccc34)[C@@](C(=O)OC)(c3cc4c(cc3OC)N(C)[C@H]3C(O)(CNC(=O)OCc5ccccc5[N+](=O)[O-])[C@H](OC(C)=O)[C@]5(CC)C=CCN6CC[C@]43[C@@H]65)C2)C1` (stereo partly shown) [BM72], the half-maximal inhibitory concentration (IC50) in assay [1] (setting [3]) was found to be 830 nM; in assay [2] (setting [4]), 561 nM.
In the same order, the values of `CCC1=C[C@@H]2CN(CCc3c([nH]c4ccccc34)[C@@](C(=O)OC)(c3cc4c(cc3OC)N(C)[C@H]3C(O)(CNC(=O)OCc5ccc([N+](=O)[O-])cc5)[C@H](OC(C)=O)[C@]5(CC)C=CCN6CC[C@]43[C@@H]65)C2)C1` (stereo partly shown) [BM73] are 780 nM and 432 nM.
For `CCCCOCC1(O)[C@H](OC(C)=O)[C@]2(CC)C=CCN3CC[C@@]4(c5cc([C@@]6(C(=O)OC)C[C@@H]7C=C(CC)CN(CCc8c6[nH]c6ccccc86)C7)c(OC)cc5N(C)[C@@H]14)[C@@H]32` (stereo partly shown) [BM4], the IC50 in assay [1] (setting [3]) is more than 1000 nM; in assay [2] (setting [4]), 295 nM.
The like results for `CCC1=C[C@@H]2CN(CCc3c([nH]c4ccccc34)[C@@](C(=O)OC)(c3cc4c(cc3OC)N(C)[C@H]3C(O)(CNC(=O)C(C)(C)C)[C@H](OC(C)=O)[C@]5(CC)C=CCN6CC[C@]43[C@@H]65)C2)C1` (stereo partly shown) [BM34] were, in that order, 338 nM and 73.5 nM.
With `CCC1=C[C@@H]2CN(CCc3c([nH]c4ccccc34)[C@@](C(=O)OC)(c3cc4c(cc3OC)N(C)[C@H]3C(O)(CNC(=O)OCc5ccc(OC)cc5)[C@H](OC(C)=O)[C@]5(CC)C=CCN6CC[C@]43[C@@H]65)C2)C1` (stereo partly shown) [BM68], the concentration for half-maximal inhibition (IC50) in assay [1] (setting [3]) was found to be 150 nM; in assay [2] (setting [4]), 87.6 nM.
As to `CCC1=C[C@@H]2CN(CCc3c([nH]c4ccccc34)[C@@](C(=O)OC)(c3cc4c(cc3OC)N(C)[C@H]3C(O)(CNC(=O)OCc5cccc(Cl)c5)[C@H](OC(C)=O)[C@]5(CC)C=CCN6CC[C@]43[C@@H]65)C2)C1` (stereo partly shown) [BM70], the IC50 in assay [1] (setting [3]) and in assay [2] (setting [4]) was more than 1000 nM in each case.
As for `CCC1=C[C@@H]2CN(CCc3c([nH]c4ccccc34)[C@@](C(=O)OC)(c3cc4c(cc3OC)N(C)[C@H]3C(O)(CNC(=O)CC(C)(C)C)[C@H](OC(C)=O)[C@]5(CC)C=CCN6CC[C@]43[C@@H]65)C2)C1` (stereo partly shown) [BM31], the IC50 in assay [1] (setting [3]) was 395 nM; in assay [2] (setting [4]), 245 nM.
In the same order, the values of `CCC1=C[C@@H]2CN(CCc3c([nH]c4ccccc34)[C@@](C(=O)OC)(c3cc4c(cc3OC)N(C)[C@H]3C(O)(CNC(=O)OCCOC)[C@H](OC(C)=O)[C@]5(CC)C=CCN6CC[C@]43[C@@H]65)C2)C1` (stereo partly shown) [BM54] are 632 nM and 425 nM.
Take `CCCC(=O)NCC1(O)[C@H](OC(C)=O)[C@]2(CC)C=CCN3CC[C@@]4(c5cc([C@@]6(C(=O)OC)C[C@@H]7C=C(CC)CN(CCc8c6[nH]c6ccccc86)C7)c(OC)cc5N(C)[C@@H]14)[C@@H]32` (stereo partly shown) [BM29]: the half-maximal inhibitory concentration (IC50) in assay [1] (setting [3]) stood at 348 nM; in assay [2] (setting [4]), 126 nM.
The like results for `CCC1=C[C@@H]2CN(CCc3c([nH]c4ccccc34)[C@@](C(=O)OC)(c3cc4c(cc3OC)N(C)[C@H]3[C@@]5(CNC(=O)O5)[C@H](OC(C)=O)[C@]5(CC)C=CCN6CC[C@]43[C@@H]65)C2)C1` [BM74] were, in that order, 710 nM and 342 nM.
The like results for `CCC1=C[C@@H]2CN(CCc3c([nH]c4ccccc34)[C@@](C(=O)OC)(c3cc4c(cc3OC)N(C)[C@H]3C(O)(CNC(=O)Oc5ccccc5)[C@H](OC(C)=O)[C@]5(CC)C=CCN6CC[C@]43[C@@H]65)C2)C1` (stereo partly shown) [BM61] were, in that order, 978 nM and 683 nM.
The like results for `CC[C@]1(O)C[C@@H]2CN(CCc3c([nH]c4ccccc34)[C@@](C(=O)OC)(c3cc4c(cc3OC)N(C)[C@H]3[C@@](O)(C(=O)OC)[C@H](OC(C)=O)[C@]5(CC)C=CCN6CC[C@]43[C@@H]65)C2)C1` [Vinblastine sulfate, vinblastine sulfate, reference compound] were, in that order, 3.4 nM and 2.5 nM.
Take `CCC1=C[C@@H]2CN(CCc3c([nH]c4ccccc34)[C@@](C(=O)OC)(c3cc4c(cc3OC)N(C)[C@H]3C(O)(COC(=O)NCCC(C)C)[C@H](OC(C)=O)[C@]5(CC)C=CCN6CC[C@]43[C@@H]65)C2)C1` (stereo partly shown) [BM24]: the concentration for half-maximal inhibition (IC50) in assay [1] (setting [3]) and in assay [2] (setting [4]) was more than 1000 nM throughout.
